For one assay, the target named is T1, ErbB2 or EGFR.
T1 construct: enzymes purified from a baculovirus expression system
The assay is described as follows: ErbB enzyme substrate phosphorylation assay (HTRF), Method B (enzyme pre-incubated with compound 1 hour). It is filed as biochemical. To be noted: Table 1, enzyme Method B: enzyme mix incubated with compound 1 hour at 20° C., reaction started with substrate mix; class over ErbB2 or EGFR. The method, boiled down:
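Baculovirus-expressed kinase (0.8 nM EGFR or 10 nM ErbB2 in enzyme mix) phosphorylated biotinylated Peptide C (0.8 µM in substrate mix) with 20 µM ATP in substrate mix, MOPS pH 7.5, MnCl2, 90 min at 20 °C. Method A started with enzyme; Method B pre-incubated enzyme with compound 1 h at 20 °C. HTRF read-out; IC50 from 12-point curve (0.00027–47.6 µM), reported as pIC50.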
On the technique in general: TR-FRET usually uses a lanthanide donor and a delayed reading to cut background.

In assay [1] the test system is BT474 and HN5 tumor cell lines. Description: Methylene blue growth inhibition assay (cellular Method A). It is filed as cell-based. To be noted: Homo sapiens, BT-474 and HN5, 72 h; Table 2, Method A methylene blue, 3 days; class over BT474 and HN5. The procedure: (§1) Human breast (BT474) and head and neck (HN5) were cultured in low glucose DMEM (Life Technologies 12320-032) containing 10% fetal bovine serum (FBS). Human colon tumor cells (Colo205) were cultured in DMEM (Invitrogen, 10564) containing 10% FBS. The SV40 transformed human mammary epithelial cell line to HB4a was transfected with either human H-ras cDNA (HB4a r4.2) or the human c-ErbB2 cDNA (HB4a c5.2). The HB4a clones were cultured in RPMI containing 10% FBS, insulin ([…]), hydrocortisone ([…]), supplemented with the selection agent hygromycin B ([…]). All lines were grown in a humidified incubator at 37° C. in 95% air, 5% CO2. Cells were harvested using trypsin/EDTA, counted using a haemocytometer, and plated in 100 microliters of the appropriate media, at the following densities, in a 96-well tissue culture plate (Falcon 3075): BT474 10,000 cells/well, HN5 3,000 cells/well. The next day, compounds were diluted in DMEM containing […] gentamicin, at twice the final required concentration, from 10 mM stock solutions in DMSO. 100 microliters/well of these dilutions were added to the 100 microliters of media currently on the cell plates. Medium containing 0.6% DMSO was added to control wells. Compounds diluted in DMEM were added to all cell lines. The final concentration of DMSO in all wells was 0.3%. Cells were returned to the incubator (37° C., […]) for 3 days. Medium was then removed by aspiration. Cell biomass was estimated by staining cells with 90 microliters per well methylene blue (Sigma M9140, 0.5% in 1:1 ethanol:water), and incubation at rt for at least 30 minutes. Stain was removed, and the plates rinsed by immersion in deionized water and air-dried. To release stain from the cells 100 microliters of solubilization solution was added (1% N-lauroyl sarcosine, Sodium salt, Sigma L5125, in PBS), and plates were shaken gently for about 30 minutes. Optical density at 620 nm was measured on a microplate reader. Percent inhibition of cell growth was calculated relative to vehicle treated control wells. Concentration of compound that inhibits 50% of control cell growth (IC50) was interpolated using nonlinear regression (Levenberg-Marquardt) and the equation, y=Vmax*(1−(x/(K+x)))+Y2, where “K” was equal to the IC50. Method B: Celltiter Glo® Growth Inhibition Assays

Assay [2] concerns Colo205 tumor cell lines. The assay is described as above. It counts as cell-based. Particulars: Homo sapiens, COLO 205, 72 h, Table 3, Method A methylene blue, 3 days. As to the method:
as §1

The test system of assay [3] is BT474 and HN5 tumor cell lines. Description: Celltiter Glo growth inhibition assay (cellular Method B). It is filed as cell-based. To be noted: Homo sapiens, BT-474, 72 h; Table 2, Method B Celltiter Glo, 3 days; class over BT474 and HN5. The method, boiled down:
(§2)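 BT474, HN5 and Colo205 cells were each grown in their own 10% FBS medium, then exposed to compound for 3 days at 37 °C with 0.3% final DMSO. Growth was read by CellTiter-Glo luminescence as percent inhibition versus vehicle, and IC50 was interpolated by nonlinear regression.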
A general note: In ATP-based viability assays light output follows the ATP content of the culture.

Assay [4] has as its system Colo205 tumor cell lines. The description is as above. It counts as cell-based. Particulars: Homo sapiens, COLO 205, 72 h, Table 3, Method B Celltiter Glo, 3 days. The method, boiled down:
as §2

Each structure is given as a SMILES string.

Regarding `O=C(Cc1cccs1)Nc1cccc(-c2nn3ccccc3c2-c2ccnc(Nc3ccc(Cl)c(OCCN4CCCC4)c3)n2)c1` [Example 44, N-[3-(3-{2-[(4-chloro-3-{[2-(1-pyrrolidinyl)ethyl]oxy}phenyl)amino]-4-pyrimidinyl}pyrazolo[1,5-a]pyridin-2-yl)phenyl]-2-(2-thienyl)acetamide], the “Activity (Method)” value at ErbB2 or EGFR is listed as “+++ (B) (at least one pIC50 measurement of greater than 7 against either ErbB2 or EGFR)”. Also, the IC50 (in assay [1]; with Colo205 tumor cell lines [2]) was more than 1000 nM throughout.

For `O=C(Cc1cccs1)Nc1cccc(-c2nn3ccccc3c2-c2ccnc(Nc3cccc(OCCCN4CCCC4)c3)n2)c1` [Example 13, N-[3-(3-{2-[(3-{[3-(1-Pyrrolidinyl)propyl]oxy}phenyl)amino]-4-pyrimidinyl}pyrazolo[1,5-a]pyridin-2-yl)phenyl]-2-(2-thienyl)acetamide], at ErbB2 or EGFR, the “Activity (Method)” value is on record as “+++ (B) (at least one pIC50 measurement of greater than 7 against either ErbB2 or EGFR)”. Besides, the IC50 (in assay [1]; with Colo205 tumor cell lines [2]) was 100 to 1000 nM each time.

Regarding `O=C(Cc1cccs1)Nc1cccc(-c2nn3ccccc3c2-c2ccnc(Nc3cccc(OCCN4CCCC4)c3)n2)c1` [Example 10, N-[3-(3-{2-[(3-{[2-(1-Pyrrolidinyl)ethyl]oxy}phenyl)amino]-4-pyrimidinyl}pyrazolo[1,5-a]pyridin-2-yl)phenyl]-2-(2-thienyl)acetamide], the “Activity (Method)” value at ErbB2 or EGFR is recorded as “+++ (B) (at least one pIC50 measurement of greater than 7 against either ErbB2 or EGFR)”. Also, the IC50 (in assay [1]; in the assay with Colo205 tumor cell lines [2]) was 100 to 1000 nM in each case.

With `CN(C)CCOc1cccc(Nc2nccc(-c3c(-c4cccc(NC(=O)Cc5ccsc5)c4)nn4ccccc34)n2)c1` [Example 39, N-[3-(3-{2-[(3-{[2-(dimethylamino)ethyl]oxy}phenyl)amino]-4-pyrimidinyl}pyrazolo[1,5-a]pyridin-2-yl)phenyl]-2-(3-thienyl)acetamide], the “Activity (Method)” value at ErbB2 or EGFR is recorded as “+++ (B) (at least one pIC50 measurement of greater than 7 against either ErbB2 or EGFR)”. In addition, the IC50 (in assay [1]; in the assay on Colo205 tumor cell lines [2]) was 100 to 1000 nM throughout.

`O=C(Cc1cccs1)Nc1cccc(-c2nn3ccccc3c2-c2ccnc(Nc3ccc4c(c3)CNCC4)n2)c1` [Example 16, N-(3-{3-[2-(1,2,3,4-Tetrahydro-7-isoquinolinylamino)-4-pyrimidinyl]pyrazolo[1,5-a]pyridin-2-yl}phenyl)-2-(2-thienyl)acetamide]: the “Activity (Method)” value on ErbB2 or EGFR was “+++ (B) (at least one pIC50 measurement of greater than 7 against either ErbB2 or EGFR)”. For the same compound, the IC50 (in assay [1]; in the assay on Colo205 tumor cell lines [2]) was 100 to 1000 nM throughout.

As to `CN(C)C1Cc2ccc(Nc3nccc(-c4c(-c5cccc(NC(=O)Cc6cccs6)c5)nn5ccccc45)n3)cc2C1` (stereo not drawn) [Example 53, N-{3-[3-(2-{[2-(Dimethylamino)-2,3-dihydro-1H-inden-5-yl]amino}pyrimidin-4-yl)pyrazolo[1,5-a]pyridin-2-yl]phenyl}-2-(2-thienyl)acetamide], the “Activity (Method)” value on ErbB2 or EGFR is recorded as “+++ (B) (at least one pIC50 measurement of greater than 7 against either ErbB2 or EGFR)”. For the same compound, the IC50 (in assay [1]; in the assay with Colo205 tumor cell lines [2]) was 100 to 1000 nM each time.

With `CN(C)CCOc1cccc(Nc2nccc(-c3c(-c4cccc(NC(=O)Cc5cccs5)c4)nn4ccccc34)n2)c1` [Example 15, N-[3-(3-{2-[(3-{[2-(Dimethylamino)ethyl]oxy}phenyl)amino]-4-pyrimidinyl}pyrazolo[1,5-a]pyridin-2-yl)phenyl]-2-(2-thienyl)acetamide], the “Activity (Method)” value at ErbB2 or EGFR is “+++ (B) (at least one pIC50 measurement of greater than 7 against either ErbB2 or EGFR)”. For the same compound, the IC50 (in assay [1]; with Colo205 tumor cell lines [2]) was 100 to 1000 nM in each case.

Consider `COc1ccc(-c2nn3ccccc3c2-c2ccnc(Nc3ccc4c(c3)CN(C)CC4)n2)cc1NC(=O)Cc1cccs1` [Example 49, N-[2-Methoxy-5-(3-{2-[(2-methyl-1,2,3,4-tetrahydroisoquinolin-7-yl)amino]pyrimidin-4-yl}pyrazolo[1,5-a]pyridin-2-yl)phenyl]-2-(2-thienyl)acetamide], for which, on ErbB2 or EGFR, the “Activity (Method)” value is given as “+ (B) (no pIC50 measurement greater than 6 against either ErbB2 or EGFR)”. Also, the IC50 in assay [3] was more than 1000 nM; in the assay with Colo205 tumor cell lines [4], 100 to 1000 nM.

As for `CN(C)CCOc1cccc(Nc2nccc(-c3c(-c4cccc(NC(=O)Cc5cccs5)c4)nn4cc(F)ccc34)n2)c1` [Example 34, N-[3-(3-{2-[(3-{[2-(dimethylamino)ethyl]oxy}phenyl)amino]-4-pyrimidinyl}-6-fluoropyrazolo[1,5-a]pyridin-2-yl)phenyl]-2-(2-thienyl)acetamide], the “Activity (Method)” value on ErbB2 or EGFR is given as “+++ (B) (at least one pIC50 measurement of greater than 7 against either ErbB2 or EGFR)”. For the same compound, the half-maximal inhibitory concentration (IC50) (in assay [3]; with Colo205 tumor cell lines [4]) was 100 to 1000 nM throughout.

Regarding `O=C(Cc1c(F)cccc1F)Nc1cccc(-c2nn3ccccc3c2-c2ccnc(Nc3cccc(-c4cnco4)c3)n2)c1` [Example 20, 2-(2,6-Difluorophenyl)-N-{3-[3-(2-{[3-(1,3-oxazol-5-yl)phenyl]amino}-4-pyrimidinyl)pyrazolo[1,5-a]pyridin-2-yl]-phenyl}acetamide], the “Activity (Method)” value at ErbB2 or EGFR is reported as “+++ (B) (at least one pIC50 measurement of greater than 7 against either ErbB2 or EGFR)”. The IC50 (in assay [3]; with Colo205 tumor cell lines [4]) was 100 to 1000 nM in each case.

Consider `COc1ccc(-c2nn3ccccc3c2-c2ccnc(Nc3ccc4c(c3)CC(N(C)C)C4)n2)cc1NC(=O)Cc1cccs1` (stereo not drawn) [Example 48, N-{5-[3-(2-{[2-(Dimethylamino)-2,3-dihydro-1H-inden-5-yl]amino}pyrimidin-4-yl)pyrazolo[1,5-a]pyridin-2-yl]-2-methoxyphenyl}-2-(2-thienyl)acetamide], for which the “Activity (Method)” value at ErbB2 or EGFR is “+ (B) (no pIC50 measurement greater than 6 against either ErbB2 or EGFR)”. Also, the IC50 (in assay [3]; in the assay with Colo205 tumor cell lines [4]) was 100 to 1000 nM each time.

Take `CN(C)CCNCc1cccc(Nc2nccc(-c3c(-c4cccc(NC(=O)Cc5cccs5)c4)nn4ccccc34)n2)c1` [Example 40, N-{3-[3-(2-{[3-({[2-(dimethylamino)ethyl]amino}methyl)phenyl]-amino}-4-pyrimidinyl)pyrazolo[1,5-a]pyridin-2-yl]phenyl}-2-(2-thienyl)acetamide]: the “Activity (Method)” value on ErbB2 or EGFR is “+++ (B) (at least one pIC50 measurement of greater than 7 against either ErbB2 or EGFR)”. In addition, the IC50 (in assay [3]; in the assay with Colo205 tumor cell lines [4]) was 100 to 1000 nM each time.

Take `CN(C)Cc1cccc(Nc2nccc(-c3c(-c4cccc(NC(=O)Cc5cccs5)c4)nn4ccccc34)n2)c1` [Example 7, N-(3-{3-[2-({3-[(Dimethylamino)methyl]phenyl}amino)-4-pyrimidinyl]pyrazolo[1,5-a]pyridin-2-yl}phenyl)-2-(2-thienyl)acetamide]: on ErbB2 or EGFR, the “Activity (Method)” value was “+++ (B) (at least one pIC50 measurement of greater than 7 against either ErbB2 or EGFR)”. Moreover, the IC50 (in assay [3]; with Colo205 tumor cell lines [4]) was 100 to 1000 nM each time.

As for `CN1CCc2ccc(Nc3ncc(F)c(-c4c(-c5cccc(NC(=O)c6c(F)cccc6F)c5)nn5ccccc45)n3)cc2C1` [Example 51, 2,6-Difluoro-N-[3-(3-{5-fluoro-2-[(2-methyl-1,2,3,4-tetrahydro-7-isoquinolinyl)amino]-4-pyrimidinyl}pyrazolo[1,5-a]pyridin-2-yl)phenyl]benzamide], the “Activity (Method)” value at ErbB2 or EGFR was “+++ (B) (at least one pIC50 measurement of greater than 7 against either ErbB2 or EGFR)”. The IC50 (in assay [3]; in the assay with Colo205 tumor cell lines [4]) was 100 to 1000 nM each time.

Usually IC50 stands for the concentration needed to halve the response being measured. Low readings indicate greater potency, high ones weaker potency.

These data come from patent publication US7807673B2, “2-pyrimidinyl pyrazolopyridine ErbB kinase inhibitors” (GlaxoSmithKline LLC, priority 2005, dated 2010).
